Measurements reported in PubChem BioAssay AID2060330 (Molecular Pharmacology Branch, DTP, NCI, 2025).

Tested on: LG0703-F948-PDC spheroids with HUVEC/MSC, viability
Experiment: Anticancer human tumor LG0703-F948-PDC patient-derived lung adenocarcinoma cell line growth inhibition [IpAb]
Conditions: for IC50: curve of first compound; for viability, T/C: stronger effect = lower value
From the text: Combinatorial screen of targeted agents with ipatasertib and abemaciclib in multi-cell type tumor spheroids
A high-throughput screen of multi-cell type tumor spheroids was designed to identify active combinations of targeted small molecules and ipatasertib or abemaciclib. Complex spheroids include a stromal component modeled by human endothelial cells (HUVEC) and fibroblasts modeled by human mesenchymal stem cells (MSCs). The concentration ranges selected for each drug and investigational agent were based upon clinically achievable concentrations if the clinical Cmax of the agent was known.
Compounds. The drugs and investigational agents: ipatasertib (NSC767898), abemaciclib(NSC768073), selumetinib (NSC741078), trametinib (758246), adavosertib (NSC754352), everolimus (NSC733504), sapanisertib (NSC764658), vemurafenib (NSC761431), venetoclax (NSC766270), copanlisib (NSC809693), apelisib (NSC765974), palbociblib (NSC758247), vemurafenib (NSC761431), dabrafenib (NSC764134), ravoxertinib (NSC781343), BMS-387032 (NSC767048), sotorasib (NSC818433), talazoparib (NSC767125) and afursertib (NSC778305), were obtained from the National Cancer Institute (NCI) Developmental Therapeutics Program Chemical Repository. The FDA-approved anticancer drug set is available from the NCI Developmental Therapeutics Program. […] The stock solutions were prepared in dimethyl sulfoxide (DMSO, Sigma-Aldrich, St. Louis, MO, cat. D2650) at 800-fold the tested concentration and stored at -70 degrees C prior to their use. All drugs and investigational agents were tested over a range starting from a high concentration at or near the clinical Cmax and decreasing in half-log increments. If the clinical Cmax for an agent had not been determined, the highest concentration tested was 10 microM.
NCI60 Cell Culture. NCI60 cell lines were obtained from the NCI Developmental Therapeutics Program Tumor Repository. For each lot of cells, the Repository performed Applied Biosystems AmpFLSTR Identifiler testing with PCR amplification to confirm consistency with the published Identifier STR profile for each cell line. Cells were kept in continuous culture for no more than 20 passages. The optimal seeding densities for each of the cell lines at each time point assessed were determined prior to performing the concentration response studies. Briefly, the NCI60 human tumor lines were grown as monolayers in RPMI 1640 medium supplemented with 10% FBS and 2 mmol/L L-glutamine.
An additional 9 lines were from the NCI60 cell line panel including MDA-MB-231 breast carcinoma, MDA-MB-468 breast carcinoma, MCF7 breast carcinoma, Hs578T breast carcinoma, MALME-3M melanoma, SK-MEL-2 melanoma, SK-OV-3 ovarian carcinoma, DU-145 prostate carcinoma, PC-3 prostate carcinoma, all cell lines along with major genetic alterations are listed on Table 2. Pooled donor human umbilical vein endothelial cells (HUVEC, Lonza, cat. CC-2519) and human mesenchymal stem cells (hMSC, Lonza, cat. PT-2501) were purchased from Lonza (Walkersville, MD).
PDMR cell lines were grown in complete medium (DC medium): Dulbecco's modified Eagle's medium (DMEM)/F12 supplemented with 5% fetal bovine serum (FBS), 2 mM L-glutamine, 100 U/mL penicillin and 100 µg/ml streptomycin, 0.4 µg/ml hydrocortisone, 10 ng/ml epidermal growth factor (EGF) recombinant human protein, 24 µg/mL adenine, and 0.1 mg/mL primocin. During culture from frozen stock vials, PDMR cells were cultured in the same medium containing 10 µM Y-27632 (see Table 3). The PDCs were cultured in complete DMEM/F12 media without 10 microM Y-27632 dihydrochloride for at least two passages prior to the screen. The pooled donor HUVEC and hMSC were cultured in endothelial cell growth medium 2 (PromoCell, Heidelberg, Germany, cat. C-22011) and mesenchymal stem cell growth medium 2 (PromoCell, cat. C-28009), respectively. For all experiments, HUVEC and hMSC were used at passages </=5.
[…]

[1] = second compound 0.1 µM, first compound 0.0316 µM
[2] = second compound 0.1 µM, first compound 0.1 µM
[3] = second compound 0.1 µM, first compound 0.316 µM
[4] = second compound 0.1 µM, first compound 1 µM
[5] = second compound 0.1 µM, first compound 3.16 µM
[6] = second compound 0.1 µM, first compound 10 µM
[7] = second compound 0.316 µM, first compound 0.0316 µM
[8] = second compound 0.316 µM, first compound 0.1 µM
[9] = second compound 0.316 µM, first compound 0.316 µM
[10] = second compound 0.316 µM, first compound 1 µM
[11] = second compound 0.316 µM, first compound 3.16 µM
[12] = second compound 0.316 µM, first compound 10 µM
[13] = second compound 1 µM, first compound 0.0316 µM
[14] = second compound 1 µM, first compound 0.1 µM
[15] = second compound 1 µM, first compound 0.316 µM
[16] = second compound 1 µM, first compound 1 µM
[17] = second compound 1 µM, first compound 3.16 µM
[18] = second compound 1 µM, first compound 10 µM
[19] = second compound 3.16 µM, first compound 0.0316 µM
[20] = second compound 3.16 µM, first compound 0.1 µM
[21] = second compound 3.16 µM, first compound 0.316 µM
[22] = second compound 3.16 µM, first compound 1 µM
[23] = second compound 3.16 µM, first compound 3.16 µM
[24] = second compound 3.16 µM, first compound 10 µM
[25] = second compound 10 µM, first compound 0.0316 µM
[26] = second compound 10 µM, first compound 0.1 µM
[27] = second compound 10 µM, first compound 0.316 µM
[28] = second compound 10 µM, first compound 1 µM
[29] = second compound 10 µM, first compound 3.16 µM
[30] = second compound 10 µM, first compound 10 µM
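Further: spheroids exposed to compounds for seven days before readout.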
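Wherever viability, T/C is given: T/C percent relative to DMSO vehicle wells set as 100% viability.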

Compound	IC50 (second compound 0.1 µM)	IC50 (second compound 0.316 µM)	IC50 (second compound 1 µM)	IC50 (second compound 3.16 µM)	IC50 (second compound 10 µM)	viability, T/C [1]	viability, T/C [2]	viability, T/C [3]	viability, T/C [4]	viability, T/C [5]	viability, T/C [6]	viability, T/C [7]	viability, T/C [8]	viability, T/C [9]	viability, T/C [13]	viability, T/C [14]	viability, T/C [19]	viability, T/C [20]	viability, T/C [25]	viability, T/C [26]	further results
C=CCn1c(=O)c2cnc(Nc3ccc(N4CCN(C)CC4)cc3)nc2n1-c1cccc(C(C)(C)O)n1 + CC(C)NCC(C(=O)N1CCN(c2ncnc3c2C(C)CC3O)CC1)c1ccc(Cl)cc1	704 nM	243 nM	< 31.6 nM	< 31.6 nM	< 31.6 nM	97.8%	94.6%	72.4%	40.5%	13.2%	4.37%	75.6%	66.5%	45.6%	44.7%	36.7%	39.3%	39.6%	28.6%	24.1%	viability, T/C [10]: 17.1%; viability, T/C [11]: 5.97%; viability, T/C [12]: 2.34%; viability, T/C [15]: 37.1%; viability, T/C [16]: 16.5%; viability, T/C [17]: 7.72%; viability, T/C [18]: 2.58%; viability, T/C [21]: 28.3%; viability, T/C [22]: 13.2%; viability, T/C [23]: 6.52%; viability, T/C [24]: 3.11%; viability, T/C [27]: 15.9%; viability, T/C [28]: 5.77%; viability, T/C [29]: 5.31%; viability, T/C [30]: 6.51%
CC(C)n1nc(-c2ccc3oc(N)nc3c2)c2c(N)ncnc21 + CC(C)NCC(C(=O)N1CCN(c2ncnc3c2C(C)CC3O)CC1)c1ccc(Cl)cc1	2.49 nM	0.914 nM	< 0.316 nM	< 0.316 nM	< 0.316 nM	18.9%	18.9%	–	–	–	–	16.4%	12.6%	–	11.2%	9.31%	7.95%	7.22%	5.1%	29.5%	viability, T/C (second compound 0.1 µM, first compound 0.000316 µM): 77.5%; viability, T/C (second compound 0.1 µM, first compound 0.001 µM): 64.8%; viability, T/C (second compound 0.1 µM, first compound 0.00316 µM): 47.5%; viability, T/C (second compound 0.1 µM, first compound 0.01 µM): 25.9%; viability, T/C (second compound 0.316 µM, first compound 0.000316 µM): 65%; viability, T/C (second compound 0.316 µM, first compound 0.001 µM): 49%; viability, T/C (second compound 0.316 µM, first compound 0.00316 µM): 32%; viability, T/C (second compound 0.316 µM, first compound 0.01 µM): 21.4%; viability, T/C (second compound 1 µM, first compound 0.000316 µM): 49.1%; viability, T/C (second compound 1 µM, first compound 0.001 µM): 37%; viability, T/C (second compound 1 µM, first compound 0.00316 µM): 22.8%; viability, T/C (second compound 1 µM, first compound 0.01 µM): 14%; viability, T/C (second compound 3.16 µM, first compound 0.000316 µM): 39.7%; viability, T/C (second compound 3.16 µM, first compound 0.001 µM): 24.9%; viability, T/C (second compound 3.16 µM, first compound 0.00316 µM): 15.1%; viability, T/C (second compound 3.16 µM, first compound 0.01 µM): 8.55%; viability, T/C (second compound 10 µM, first compound 0.000316 µM): 31.7%; viability, T/C (second compound 10 µM, first compound 0.001 µM): 18.1%; viability, T/C (second compound 10 µM, first compound 0.00316 µM): 10.4%; viability, T/C (second compound 10 µM, first compound 0.01 µM): 16.2%
CCCS(=O)(=O)Nc1ccc(F)c(C(=O)c2c[nH]c3ncc(-c4ccc(Cl)cc4)cc23)c1F + CC(C)NCC(C(=O)N1CCN(c2ncnc3c2C(C)CC3O)CC1)c1ccc(Cl)cc1	> 10000 nM	> 10000 nM	3780 nM	< 31.6 nM	< 31.6 nM	85.5%	89.6%	85%	91.2%	86.2%	67.5%	69.2%	71.7%	68.4%	54.1%	49.6%	41.1%	42.8%	35.6%	39.7%	viability, T/C [10]: 78.2%; viability, T/C [11]: 75%; viability, T/C [12]: 55.6%; viability, T/C [15]: 50%; viability, T/C [16]: 52.1%; viability, T/C [17]: 56.9%; viability, T/C [18]: 36.5%; viability, T/C [21]: 45%; viability, T/C [22]: 46.3%; viability, T/C [23]: 49.6%; viability, T/C [24]: 25.6%; viability, T/C [27]: 38.3%; viability, T/C [28]: 45.1%; viability, T/C [29]: 44%; viability, T/C [30]: 7.66%
